Values quoted from earlier work as cited in patent US20130237556A1, “BERBERINE ALKALOID AS A MEDICAMENT FOR PREVENTION AND TREATMENT OF NEURAL DISEASE” (HONG KONG BAPTIST UNIVERSITY, priority 2012, published 2013).

Tested on: activated microglia
Details: ibuprofen-treated animals; cited from earlier work

SMILES: CC(C)Cc1ccc(C(C)C(=O)O)cc1 (stereo not shown) [ibuprofen]
- decrease in activated microglia: 57%
